Source: patent publication US9763445B2, “Safened herbicidal compositions comprising a pyridine carboxylic acid herbicide” (Dow AgroSciences, LLC, priority 2014, dated 2017)

Experiments:
pigweed (AMARE) = test: Postemergence greenhouse trial, % visual injury on pigweed; assay type: in vivo, Amaranthus retroflexus; details: AMARE; for % visual injury, Ob: CQC-m 0 g/ha
Experimental: (§1) Seeds of the desired test plant species were planted in Sun Gro MetroMix® 306 planting mixture, which typically has a pH of 6.0 to 6.8 and an organic matter content of about 30 percent, in plastic pots with a surface area of 103.2 square centimeters (cm^2). When required to ensure good germination and healthy plants, a fungicide treatment and/or other chemical or physical treatment was applied. The plants were grown for 7-36 days (d) in a greenhouse with an approximate 14-hour (h) photoperiod which was maintained at about 23° C. during the day and 22° C. during the night. Nutrients and water were added on a regular basis and supplemental lighting was provided with overhead metal halide 1000-Watt lamps as necessary. The plants were employed for testing when they reached the second or third true leaf stage.
(§2) Weighed amounts of technical material were dissolved in a volume of 97:3 volume per volume (v/v) acetone/dimethyl sulfoxide (DMSO) to stock solutions. […] The concentrated stock solutions were diluted with an aqueous mixture of 1.5% v/v of Agri-dex crop oil concentrate to provide the appropriate application rates. Compound requirements are based upon a 12 milliliter (mL) application volume at a rate of 187 liters per hectare (L/ha). Stocks solutions of the safeners were prepared following the same procedure. Spray solutions of the safeners and experimental compound mixtures were prepared by adding the stock solutions to the appropriate amount of dilution solution to form a 12 mL spray solution in two-way combinations. Formulated compounds were applied to the plant material with an overhead Mandel track sprayer equipped with 8002E nozzles calibrated to deliver 187 L/ha over an application area of 0.503 square meters (m^2) at a spray height of 18 inches (43 centimeters (cm)) above average plant canopy. Control plants were sprayed in the same manner with the solvent blank. All herbicide application (component a) rates are in g ae/ha and all safener (component b) rates are in g ai/ha.
(§3) The treated plants and control plants were placed in a greenhouse as described above and watered by sub-irrigation to prevent wash-off of the test compounds. After 20-22 d, the condition of the test plants as compared with that of the control plants was determined visually and scored on a scale of 0 to 100 percent where 0 corresponds to no injury and 100 corresponds to complete kill. The condition of the test plants was compared with that of the control plants as determined visually and scored on a scale of 0 to 100 percent, where 0 corresponds to no injury and 100 corresponds to complete kill. Colby's equation was used to determine the herbicidal effects expected from the mixtures.
(§4) The safener cloquintocet-mexyl was combined with compound 1, compound 2, compound 4, compound 5, and compound 6, and applied to corn/maize (ZEAMX) and spring wheat (TRZAS) and the phytotoxicity of the herbicidal compositions was measured. In addition, the efficacy of the herbicidal composition on velvetleaf (ABUTH, Abutilon theophrasti), pigweed (AMARE, Amaranthus retroflexus), winter rape (BRSNW, Brassica napus), lambsquarters (CHEAL, Chenopodium album), thistle (CIRAR, Cirsium arvense), nutsedge (CYPES, Cyperus esculentus), poinsettia (EPHHL, Euphorbia heterophylla), wild buckwheat (POLCO, Polygonum convolvulus), giant foxtail (SETFA, Setaria faberi), and chickweed (STEME, Stellaria media) was evaluated. […]
The safener cloquintocet-acid and a number of agriculturally acceptable esters and salts (-mexyl, -dimethylammonium salt and -triethylammonium salt) were combined in varying ratios with compound 1 and applied to spring wheat (TRZAS), winter wheat (TRZAW), and spring barley (HORVS), and the phytotoxicity of the herbicidal compositions was measured. […]

spring barley (HORVS) = test: Postemergence greenhouse trial, % visual injury on spring barley; assay type: in vivo, Hordeum vulgare; details: HORVS, CQC-m 0 g/ha
Experimental: as §1, §2, §3
(§5) The safener cloquintocet-mexyl was combined with compound 1, compound 2, compound 3, compound 7, compound 8, compound 9, compound 10, compound 11, compound 12, compound 13, compound 14, compound 15, compound 16, compound 17, compound 18, compound 19, and compound 20, and applied to spring wheat (TRZAS), winter wheat (TRZAW), and spring barley (HORVS) and the phytotoxicity of the herbicidal compositions was measured. […]

Russian thistle (SASKR) = test: Postemergence greenhouse trial, % visual injury on Russian thistle; assay type: in vivo, Salsola kali; details: SASKR, CQC-m 0 g/ha
spring wheat (TRZAS) = test: Postemergence greenhouse trial, % visual injury on spring wheat; assay type: in vivo, Triticum aestivum; details: TRZAS, CQC-m 0 g/ha
Experimental: as §1, §2, §3
The safener cloquintocet-mexyl was combined with compound 1, compound 2, compound 4, compound 5, and compound 6, and applied to corn/maize (ZEAMX) and spring wheat (TRZAS) and the phytotoxicity of the herbicidal compositions was measured. In addition, the efficacy of the herbicidal composition on velvetleaf (ABUTH, Abutilon theophrasti), pigweed (AMARE, Amaranthus retroflexus), winter rape (BRSNW, Brassica napus), lambsquarters (CHEAL, Chenopodium album), thistle (CIRAR, Cirsium arvense), nutsedge (CYPES, Cyperus esculentus), poinsettia (EPHHL, Euphorbia heterophylla), wild buckwheat (POLCO, Polygonum convolvulus), giant foxtail (SETFA, Setaria faberi), and chickweed (STEME, Stellaria media) was evaluated.
as §5

cleavers (GALAP) = test: Postemergence greenhouse trial, % visual injury on cleavers; assay type: in vivo, Galium aparine; details: CQC-m 0 g/ha
Experimental: as §1, §2, §3, §5

common poppy (PAPRH) = test: Postemergence greenhouse trial, % visual injury on common poppy; assay type: in vivo, Papaver rhoeas; details: Papaver rhoeas, post-emergence, PAPRH, applied alone, read-out: % visual injury, Ob
Experimental: as §1, §2
as §3, with “mixtures. […]” for “mixtures.”

wild mustard (SINAR) = test: Postemergence greenhouse trial, % visual injury on wild mustard; assay type: in vivo, Sinapis arvensis; details: Brassica, post-emergence, SINAR, applied alone, read-out: % visual injury, Ob
Experimental: as §1, §2
as §3, with “mixtures. […]” for “mixtures.”

winter rape (BRSNW) = test: Postemergence greenhouse trial, % visual injury on winter rape; assay type: in vivo, Brassica napus; details: Brassica napus, post-emergence, BRSNW, applied alone, read-out: % visual injury, Ob
Experimental: as §1, §2, §3, §4

kochia (KCHSC) = test: Postemergence greenhouse trial, % visual injury on kochia; assay type: in vivo, Kochia scoparia; details: Bassia scoparia, post-emergence, KCHSC, applied alone, read-out: % visual injury, Ob
Experimental: as §1, §2
as §3, with “mixtures. […]” for “mixtures.”

wild pansy (VIOTR) = test: Postemergence greenhouse trial, % visual injury on wild pansy; assay type: in vivo, Viola tricolor; details: VIOTR, applied alone
Experimental: as §1, §2
as §3, with “mixtures. […]” for “mixtures.”

C=Cc1c(C(=O)OC)nc(-c2ccc3cc[nH]c3c2F)c(F)c1N [compound 14]
% visual injury, Ob (pigweed (AMARE); compound 4.380 g/ha): 10% | % visual injury, Ob (pigweed (AMARE); compound 8.75 g/ha): 10% | % visual injury, Ob (pigweed (AMARE); compound 17.5 g/ha): 20% | % visual injury, Ob (spring barley (HORVS); compound 4.380 g/ha): 0% | % visual injury, Ob (spring barley (HORVS); compound 8.75 g/ha): 0% | % visual injury, Ob (spring barley (HORVS); compound 17.5 g/ha): 10% | % visual injury, Ob (spring barley (HORVS); compound 35 g/ha): 20% | % visual injury, Ob (spring barley (HORVS); compound 70 g/ha): 40% | % visual injury, Ob (Russian thistle (SASKR); compound 4.380 g/ha): 0% | % visual injury, Ob (Russian thistle (SASKR); compound 8.75 g/ha): 10% | % visual injury, Ob (Russian thistle (SASKR); compound 17.5 g/ha): 50% | % visual injury, Ob (Russian thistle (SASKR); compound 35 g/ha): 60% | % visual injury, Ob (Russian thistle (SASKR); compound 70 g/ha): 70% | % visual injury, Ob (spring wheat (TRZAS); compound 4.380 g/ha): 0% | % visual injury, Ob (spring wheat (TRZAS); compound 8.75 g/ha): 0% | % visual injury, Ob (spring wheat (TRZAS); compound 17.5 g/ha): 0% | % visual injury, Ob (spring wheat (TRZAS); compound 35 g/ha): 10% | % visual injury, Ob (spring wheat (TRZAS); compound 70 g/ha): 30% | % visual injury, Ob (cleavers (GALAP); compound 4.380 g/ha): 10% | % visual injury, Ob (cleavers (GALAP); compound 8.75 g/ha): 10% | % visual injury, Ob (cleavers (GALAP); compound 17.5 g/ha): 20% | % visual injury, Ob (cleavers (GALAP); compound 35 g/ha): 30% | % visual injury, Ob (cleavers (GALAP); compound 70 g/ha): 60%

Nc1c(F)c(-c2ccc3cc[nH]c3c2)nc(C(=O)O)c1Cl [compound 16]
pest or weed control at 4.375 g/ha (pigweed (AMARE); Amaranthus retroflexus, post-emergence, 4.375 g/ha, applied alone, read-out: % visual injury, Ob): 70% | pest or weed control at 8.75 g/ha (pigweed (AMARE); Amaranthus retroflexus, post-emergence, 8.75 g/ha, applied alone, read-out: % visual injury, Ob): 80% | pest or weed control at 17.5 g/ha (pigweed (AMARE); Amaranthus retroflexus, post-emergence, 17.5 g/ha, applied alone, read-out: % visual injury, Ob): 85% | pest or weed control at 35 g/ha (pigweed (AMARE); Amaranthus retroflexus, post-emergence, 35 g/ha, applied alone, read-out: % visual injury, Ob): 100% | pest or weed control at 70 g/ha (pigweed (AMARE); Amaranthus retroflexus, post-emergence, 70 g/ha, applied alone, read-out: % visual injury, Ob): 100% | pest or weed control at 4.375 g/ha (common poppy (PAPRH); 4.375 g/ha): 70% | pest or weed control at 8.75 g/ha (common poppy (PAPRH); 8.75 g/ha): 70% | pest or weed control at 17.5 g/ha (common poppy (PAPRH); 17.5 g/ha): 100% | pest or weed control at 35 g/ha (common poppy (PAPRH); 35 g/ha): 100% | pest or weed control at 70 g/ha (common poppy (PAPRH); 70 g/ha): 100% | pest or weed control at 4.375 g/ha (wild mustard (SINAR); 4.375 g/ha): 90% | pest or weed control at 8.75 g/ha (wild mustard (SINAR); 8.75 g/ha): 93% | pest or weed control at 17.5 g/ha (wild mustard (SINAR); 17.5 g/ha): 95% | pest or weed control at 35 g/ha (wild mustard (SINAR); 35 g/ha): 100% | pest or weed control at 70 g/ha (wild mustard (SINAR); 70 g/ha): 100% | plant injury at 4.375 g/ha (winter rape (BRSNW); 4.375 g/ha): 30% | plant injury at 8.75 g/ha (winter rape (BRSNW); 8.75 g/ha): 40% | plant injury at 17.5 g/ha (winter rape (BRSNW); 17.5 g/ha): 65% | plant injury at 35 g/ha (winter rape (BRSNW); 35 g/ha): 70% | plant injury at 70 g/ha (winter rape (BRSNW); 70 g/ha): 90% | pest or weed control at 4.375 g/ha (kochia (KCHSC); 4.375 g/ha): 60% | pest or weed control at 8.75 g/ha (kochia (KCHSC); 8.75 g/ha): 70% | pest or weed control at 17.5 g/ha (kochia (KCHSC); 17.5 g/ha): 85% | pest or weed control at 35 g/ha (kochia (KCHSC); 35 g/ha): 90% | pest or weed control at 70 g/ha (kochia (KCHSC); 70 g/ha): 90% | % visual injury, Ob (wild pansy (VIOTR); 4.375 g/ha): 10% | % visual injury, Ob (wild pansy (VIOTR); 8.75 g/ha): 10% | % visual injury, Ob (wild pansy (VIOTR); 17.5 g/ha): 20% | % visual injury, Ob (wild pansy (VIOTR); 35 g/ha): 30% | % visual injury, Ob (wild pansy (VIOTR); 70 g/ha): 40%
